# Results taken from patent US10071163B2, “Compositions and methods for selective delivery of oligonucleotide molecules to specific neuron types” (nLife Therapeutics, S.L., priority 2010, dated 2018).
# Columns and labels:
# 5-HT1AR [1] = biological target: T1, 5-HT1AR (Mus musculus, UniProt Q64264); assay: 8-OH-DPAT-induced hypothermia after i.c.v. infusion into D3V; assay type: in vivo, mice; design: we used [^3H]8-OH-DPAT for the autoradiographic visualization of 5-HT1A receptor sites; from tissue; host or cells: mouse brain (dorsal raphe nucleus, prefrontal cortex, hippocampus): living animal or frozen 14 µm sections; conditions: 30 μg/2.5 μl/1 day into D3V; 24 h after infusion; 8-OH-DPAT 1 mg/kg i.p.; FIG. 6
# T1 sequence (Q64264 1-421): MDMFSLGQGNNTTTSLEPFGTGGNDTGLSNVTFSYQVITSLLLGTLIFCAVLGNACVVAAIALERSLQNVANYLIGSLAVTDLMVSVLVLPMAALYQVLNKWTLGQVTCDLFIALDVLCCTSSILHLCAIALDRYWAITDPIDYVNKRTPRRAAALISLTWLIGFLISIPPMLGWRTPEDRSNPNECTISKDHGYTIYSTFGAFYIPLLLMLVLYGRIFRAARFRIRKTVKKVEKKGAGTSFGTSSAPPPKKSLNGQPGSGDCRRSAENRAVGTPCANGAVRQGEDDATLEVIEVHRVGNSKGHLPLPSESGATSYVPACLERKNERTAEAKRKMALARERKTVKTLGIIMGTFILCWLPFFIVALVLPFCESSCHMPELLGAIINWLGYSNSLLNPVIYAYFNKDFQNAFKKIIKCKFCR
# Procedure: To test a functional measure of the pre-synaptic 5-HT1AR activity, we evaluated the hypothermia response induced by (R)-(+)-8-hydroxy-2-(di-n-propylamino)tetralin hydrobromide (8-OH-DPAT, a selective 5-HT1AR agonist) 24 hs after the infusion of a pool of naked siRNA or NLF-siRNA into dorsal raphe nucleus (DRN, 0.3 μg (0.02 nmoles)/1 μl/2 days). […] Mice were kept in individual cages in experimental room at stable temperature of 22° C. 1 h before the experiment. All experiments were carried out between 10:00 a.m. and 14:00 p.m. Body temperature was measured by inserting a lubricated probe into the rectum 5 min before the reading of the temperature while the mice was freely moving. The readings were obtained with a digital thermometer. A basal value was measured 5 min before and 15, 30, 60 and 120 min after 8-OH-DPAT administration. […] Body temperature was assessed 24 hs after the last application of 5-HT1A-targeting siRNAs into DRN in different groups of mice and in their respective controls. […]
# To evaluate the NLF-siRNA effect on the functional features of 5-HT1AR we assayed hypothermia response induced by 8-OH-DPAT and 5-HT release in the medial prefrontral cortex (mPFC). We evaluated the hypothermia response induced by 8-OH-DPAT 24 hs after the infusion of a pool of naked siRNAs or NLF-siRNA (as described in example 2) into dorsal 3rd ventricle (D3V, 30 μg/2.5 μl/1 day).
# 5-HT1AR [2] = biological target: T1, 5-HT1AR; assay: Microdialysis of 5-HT in mPFC after 8-OH-DPAT, intranasal siRNA; conditions: intranasal 15 μg/5 μl in each nostril; 8-OH-DPAT 0.5 mg/kg i.p.; FIG. 12B
# Procedure: To evaluate 5-HT release, an intracerebral microdyalisis procedure was used as has been described in the state of the art. In brief, the shaft of the probe was made up of 15-mm long, 25-gauge (501 μm OD, 300 μm ID) stainless-steel tubing. The inflow and outflow tubes threaded through the 25 gauge tubing consisted of fused silica capillary tubing of 110 μm OD and 40 μM ID. The upper exposed ends of silica tubing were inserted into 7-mm long, 27 gauge (410 μm OD, 220 μM ID) stainless-steel tubing. Mice were anesthetized with sodium pentobarbital (40 mg/kg, i.p.) and positioned in a stereotaxic frame.
# Dialysate samples of 60 μl were collected every 30 min in microcentrifuge vials.
# At the completion of dialysis experiments, mice were sacrificed and the brains were immediately removed and frozen at −70° C. Coronal sections (50 μm) of the brain were cut afterwards on a cryostat and stained with cresyl violet, according to standard procedures, for localization of the perfusion site. Only data obtained from animals with histologically correct probe placements were used for subsequent statistical analysis.
# The retention time for 5-HT was 3.5-4 min and the detection limit was 2 fmol/sample.
# Mice were anesthetized with pentobarbital 40 mg/kg i.p and positioned on their backs. PBS or NLF-siRNA was slowly and gently dropped in alternating nostril with a micropipette tip in 5-ul aliquots.
# 5-HT1AR [3] = assay: [3H]8-OH-DPAT autoradiographic binding of 5-HT1AR protein after i.c.v. infusion; assay type: in vivo, mice; conditions: 30 μg/2.5 μl/1 day into D3V
# Procedure: To assay the density of 5-HT1AR protein we used [^3H]8-OH-DPAT for the autoradiographic visualization of 5-HT1A receptor sites. The experimental incubation conditions for [^3H]8-OH-DPAT have been previously described in the state of the art. Briefly, frozen tissue sections were thawed and dried, preincubated in 170 mM Tris-HCl pH 7.6, 4 mM CaCl2 and 0.01% ascorbic acid for 30 minutes at room temperature, and then incubated in the same buffer, including 1 nM [^3H]—OH-DPAT (234.0 Ci/mmol) and 10^−5 M pargyline for 60 minutes at room temperature. Non-specific binding was defined as that remaining in the presence of 10^−5 M 5-HT. After incubation and washing, tissue sections were dipped in distilled ice-cold water and dried rapidly under a cold air stream. Tissues were exposed to tritium-sensitive film together with plastic ^3H-standards for 60 days at 4° C.
# A set of molecules (vehicle, ns naked siRNA, ns NLF-siRNA, naked siRNA and NLF-siRNA groups), as described in example 3, were infused at 30 μg/2.5 μl/1 day (2.3 nmoles) into dorsal 3rd ventricle (D3V) at the following stereotaxic coordinates (in mm: AP: −2.0, L: 0, DV: −2.1) using similar mice strain and infusion system of example 2. […]
# [4] = system: presynaptic 5-HT1A receptor; assay: Microdialysis of 5-HT in medial prefrontal cortex after acute fluoxetine, i.c.v. siRNA; assay type: in vivo, mice; conditions: after systemic fluoxetine 20 mg/kg i.p.; siRNA 30 μg i.c.v.; FIG. 9
# Excerpt: The increase of extracellular 5-HT produced by reuptake blockade of serotonin transporter (SERT) activates 5-HT1A autoreceptors in the midbrain raphe nuclei, suppressing cell firing and terminal release, an effect that attenuates the extracellular 5-HT increase produced by reuptake blockade. Consequently, the activation of postsynaptic serotonin receptors responsible for the therapeutic effect is lower than expected. It is known that the blockade of these negative feedback mechanisms with 5-HT1A receptor antagonists (i.e pindolol) potentiates the 5-HT increase produced by SSRIs and, therefore, might serve to accelerate the clinical effects of SSRIs.
# [5] = system: dopaminergic neurons of the substantia nigra pars compacta; assay: Confocal localization of Cy3 label in substantia nigra after ICV administration; assay type: in vivo, mice; conditions: FIG. 17
# Procedure: (§1) For the infusion of siRNAs, C57BV6Ncr1 male mice were deeply anesthetized with isofluorane and placed in a mouse adaptor (Stoelting ref. 51625) attached to a stereotaxic frame with digital display readout (David Kopf Instruments, model 940). […] The needle was left in the place for 3 min to avoid upward flow of the siRNA solution.
# (§2) The mice were perfused with 4% PFA at two different time points, 1 and 3 hours post-administration of the siRNA. Brains were dissected and post-fixed in a solution of 4% PFA for 24 h at 4° C. Then brains were placed in a 30% sucrose solution for 48 h at 4° C. Brains were frozen in 2-methylbutane at −30 to −40° C. and stored at −80° C. Brains were sectioned in a cryostat Leica CM3050 S ([…]). Free-floating sections were washed and stored at 4° C. in 0.1 M PBS and 0.001% sodium azide.
# (§3) Sections were washed in PBS, blocked with 2% goat serum and 0.1% Triton and incubated with anti-TH antibody (1:800 mouse) overnight at 4° C. After washing, sections were incubated with secondary antibody Alexa Fluor 647 anti-mouse (Invitrogen) for 1 h at room temperature. Finally sections were mounted with Dako Fluorescent Mounting Medium and analyzed using a confocal spectral microscope (FV 1000 Olympus). Pictures were generated using FV 10-ASW 1.7 Viewer.
# [6] = system: noradrenergic neurons of the locus coeruleus; assay: Confocal localization of Cy3 label in locus coeruleus after ICV administration; assay type: in vivo, mice; conditions: FIG. 18
# Procedure: as §1, §2, §3
# [7] = 1 hour after ICV administration, 100 μg
Substance,hypothermia response induced by 8-OH-DPAT (5-HT1AR [1]),extracellular 5-HT levels in mPFC following systemic 8-OH-DPAT (5-HT1AR [2]),knockdown effect on 5-HT1AR (5-HT1AR [3]),"dyalisate serotonin concentration in medial prefrontal cortex, higher than baseline [4] [%]","Cy3 red labeling in TH-positive nigral neurons [5, 7]","Cy3 red labeling in gabaergic neurons of the substantia nigra reticulata [5, 7]",Cy3 red intracellular labeling in substantia nigra ([5]; 3 hours after ICV injection),"Cy3 red labeling in TH-positive noradrenergic neurons [6, 7]",Cy3 red intracellular labeling in locus coeruleus ([6]; 3 hours after ICV injection)
ns NLF-siRNA: nonsense siRNA (SEQ ID NO 56/57) conjugated to a group of formula (I) and one targeting agent; control (chain 1 AGUACUGCUUACGAUACGG; chain 2 CCGUAUCGUAAGCAGUACU; further chemistry not given here),typical curve in the hypothermia response,reduced,did not show a knockdown effect,~50,,,,,
"NLF-NS-siRNA-Cy3: non-sense siRNA (SEQ ID NO 69/70) conjugated to nomifensin, antisense strand carrying Cy3 (chain 1 AGUACUGCUUACGAUACGG; chain 2 CCGUAUCGUAAGCAGUACU; conjugated to nomifensin, Cy3 label, positions not given here)",,,,,can be detected within TH-positive nigral neurons,not in the gabaergic neurons,any red intracellular labeling can not be detected,can be detected mainly within TH-positive noradrenergic neurons,any red intracellular labeling can not be detected
